One assay deals with T1, human recombinant HDAC1 (Homo sapiens, UniProt Q13547).
T1 construct: purchased Enzo Life Science BML-SE456
The experiment in a line: HDAC enzyme activity inhibition assay (HDAC1, fluorimetric kit). The format is biochemical. To be noted: 0.3 μg enzyme, 10 μM substrate, 30° C., 60 minutes. How it is done: In order to examine the HDAC6 selectivity of the compounds of formula I of the present invention by HDAC1 and HDAC6 enzymatic activity inhibition assays, an experiment was performed using a conventional substance as a control. HDAC enzyme activity was measured using a HDAC Fluorimetric Drug Discovery Kit (BML-AK511, 516) from Enzo Life Science. For the HDAC1 enzyme activity test, human recombinant HDAC1 (BML-SE456) was used as an enzyme source, and Fluor de Lys®-“SIRT1 (BNL-KI177) was used as a substrate. A 5-fold dilution of the compound was seeded into a 96-well plate, and then 0.3 μg of the enzyme and 10 μM of the substrate were added to each well of the plate and allowed to react at 30° C. for 60 minutes. Then, Fluor de Lys®-Developer II (BML-KI176) was added thereto and allowed to react for 30 minutes, after which the fluorescence value (Ex 360, Em 460) was measured using a multi-plate reader (Flexstation 3, Molecular Device). The HDAC6 enzyme was tested using human recombinant HDAC6 (382180) from Calbiochem, according to the same protocol as the HDAC1 enzyme activity test method. Based on the resulting values, each IC50 value was calculated using GraphPad Prism4.0 program.

Another assay has as its target T2, human recombinant HDAC6 (Homo sapiens, UniProt Q9UBN7).
T2 construct: purchased Calbiochem 382180
T2 sequence (Q9UBN7 1-1215): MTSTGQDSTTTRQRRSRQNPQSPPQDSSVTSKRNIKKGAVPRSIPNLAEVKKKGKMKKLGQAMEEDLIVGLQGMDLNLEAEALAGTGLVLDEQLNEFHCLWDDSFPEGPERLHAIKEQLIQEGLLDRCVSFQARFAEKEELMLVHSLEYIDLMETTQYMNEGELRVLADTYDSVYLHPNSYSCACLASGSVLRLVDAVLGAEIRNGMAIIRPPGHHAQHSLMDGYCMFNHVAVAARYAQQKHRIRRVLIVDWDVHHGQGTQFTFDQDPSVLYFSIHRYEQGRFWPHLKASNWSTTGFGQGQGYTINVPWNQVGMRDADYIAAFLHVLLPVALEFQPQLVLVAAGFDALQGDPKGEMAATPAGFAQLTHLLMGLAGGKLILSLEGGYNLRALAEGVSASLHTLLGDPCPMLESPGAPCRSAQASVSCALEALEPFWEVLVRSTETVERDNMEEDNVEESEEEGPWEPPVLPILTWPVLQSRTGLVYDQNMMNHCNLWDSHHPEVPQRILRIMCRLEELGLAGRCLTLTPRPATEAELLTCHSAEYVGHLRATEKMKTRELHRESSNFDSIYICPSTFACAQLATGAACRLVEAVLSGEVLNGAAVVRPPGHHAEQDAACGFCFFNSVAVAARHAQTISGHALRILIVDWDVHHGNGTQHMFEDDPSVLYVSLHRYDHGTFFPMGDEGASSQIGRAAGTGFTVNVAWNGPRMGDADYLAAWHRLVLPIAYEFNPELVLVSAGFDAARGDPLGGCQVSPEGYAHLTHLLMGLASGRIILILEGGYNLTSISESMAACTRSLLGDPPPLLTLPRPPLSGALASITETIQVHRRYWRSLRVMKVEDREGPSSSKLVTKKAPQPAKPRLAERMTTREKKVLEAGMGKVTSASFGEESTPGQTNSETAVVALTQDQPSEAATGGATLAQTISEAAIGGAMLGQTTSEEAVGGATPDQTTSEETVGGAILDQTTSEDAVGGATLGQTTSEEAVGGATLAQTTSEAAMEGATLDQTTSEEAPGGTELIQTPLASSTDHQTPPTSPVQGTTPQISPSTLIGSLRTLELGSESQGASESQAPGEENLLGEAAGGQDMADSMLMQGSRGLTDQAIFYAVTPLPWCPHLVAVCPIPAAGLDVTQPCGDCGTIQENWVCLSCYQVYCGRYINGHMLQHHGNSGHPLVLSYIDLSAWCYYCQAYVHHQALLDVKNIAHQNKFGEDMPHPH
The experiment in a line: HDAC enzyme activity inhibition assay (HDAC6, fluorimetric kit). In kind it is biochemical. To be noted: for HDAC6 selectivity (fold): HDAC6 versus HDAC1; for IC50: same protocol as the HDAC1 test. A digest of the protocol: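 Fluorimetric kit assay: human recombinant HDAC1 or HDAC6 (0.3 μg) reacted with 10 μM Fluor de Lys-SIRT1 substrate and 5-fold serially diluted compound for 60 minutes at 30° C, followed by 30 minutes of developer. Fluorescence was read at Ex 360/Em 460, and IC50 values were calculated from it.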

T1 sequence (Q13547 whole entry): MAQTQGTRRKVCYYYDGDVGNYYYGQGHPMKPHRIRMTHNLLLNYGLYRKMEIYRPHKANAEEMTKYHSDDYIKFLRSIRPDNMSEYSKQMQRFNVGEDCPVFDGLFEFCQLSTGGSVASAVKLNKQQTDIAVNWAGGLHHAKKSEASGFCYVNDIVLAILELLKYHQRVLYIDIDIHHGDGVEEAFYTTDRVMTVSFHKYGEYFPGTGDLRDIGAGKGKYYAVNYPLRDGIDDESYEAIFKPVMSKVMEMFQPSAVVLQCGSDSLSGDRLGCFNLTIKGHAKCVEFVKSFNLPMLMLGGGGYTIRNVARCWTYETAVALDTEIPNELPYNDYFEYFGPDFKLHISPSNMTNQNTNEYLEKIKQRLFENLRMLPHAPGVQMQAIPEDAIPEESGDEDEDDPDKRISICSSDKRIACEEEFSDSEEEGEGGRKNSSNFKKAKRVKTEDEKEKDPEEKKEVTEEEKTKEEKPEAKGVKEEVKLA

The IC50 is the concentration that gives 50% inhibition. Consider `O=C(C1CCN(Cc2ccccc2)CC1)N(Cc1ccc(-c2nnc(C(F)(F)F)o2)cc1)c1ccccc1` [Compound 11166, 1-benzyl-N-phenyl-N-(4-(5-(trifluoromethyl)-1,3,4-oxadiazol-2-yl)benzyl)piperidine-4-carboxamide], for which the IC50 at human recombinant HDAC1 is 27200 nM. On human recombinant HDAC6, the “HDAC6 selectivity (fold)” value came out at 194 fold and the IC50 came to 516 nM.
Consider `O=C(CN1CCCC1)N(Cc1ccc(-c2nnc(C(F)F)o2)cc1F)c1ccc(F)c(Cl)c1` [Compound 11534, N-(3-chloro-4-fluorophenyl)-N-(4-(5-(difluoromethyl)-1,3,4-oxadiazol-2-yl)-2-fluorobenzyl)-2-(pyrolidin-1-yl)acetamide], for which, on human recombinant HDAC6, the “HDAC6 selectivity (fold)” value was found to be 1370 fold and the IC50 stood at 73 nM.
On the same counts, the results for `O=C(CN1CCOCC1)N(Cc1ccc(-c2nnc(C(F)F)o2)cc1F)c1ccc(F)c(Cl)c1` [Compound 11535, N-(3-chloro-4-fluorophenyl)-N-(4-(5-(difluoromethyl)-1,3,4-oxadiazol-2-yl)-2-fluorobenzyl)-2-morpholinoacetamide] are 1163 fold and 86 nM.
On the same counts, the results for `O=C(CN1CC[C@H](O)C1)N(Cc1ccc(-c2nnc(C(F)F)o2)cc1F)c1ccc(F)c(Cl)c1` [Compound 11536, (S)-N-(3-chloro-4-fluorophenyl)-N-(4-(5-(difluoromethyl)-1,3,4-oxadiazol-2-yl)-2-fluorobenzyl)-2-(3-hydroxypyrrolidin-1-yl)acetamide] are 1042 fold and 96 nM.
For `O=C(CN1CCC[C@@H]1CO)N(Cc1ccc(-c2nnc(C(F)F)o2)cc1F)c1ccc(F)c(Cl)c1` [Compound 11537, (R)-N-(3-chloro-4-fluorophenyl)-N-(4-(5-(difluoromethyl)-1,3,4-oxadiazol-2-yl)-2-fluorobenzyl)-2-(2-(hydroxymethyl)pyrrolidin-1-yl)acetamide], at human recombinant HDAC6, the “HDAC6 selectivity (fold)” value is recorded as 1429 fold and the IC50 came to 70 nM.
For `NC(=O)[C@@H]1CCCN1CC(=O)N(Cc1ccc(-c2nnc(C(F)F)o2)cc1F)c1ccc(F)c(Cl)c1` [Compound 11538, (S)-1-(2-((3-chloro-4-fluorophenyl) (4-(5-(difluoromethyl)-1,3,4-oxadiazol-2-yl)-2-fluorobenzyl)amino)-2-oxoethyl)pyrrolidine-2-carboxamide], on human recombinant HDAC6, the “HDAC6 selectivity (fold)” value turned out to be 1587 fold and the IC50 was 63 nM.
As for `O=C(c1ccncc1)N(Cc1ccc(-c2nnc(C(F)(F)F)o2)cn1)c1ccccc1` [Compound 11584, N-phenyl-N-((5-(5-(trifluoromethyl)-1,3,4-oxadiazol-2-yl)pyridin-2-yl)methyl)isonicotinamide], on human recombinant HDAC6, the “HDAC6 selectivity (fold)” value was determined as 1695 fold and the IC50 was 59 nM.
As to `O=C(C1CCS(=O)(=O)CC1)N(Cc1ccc(-c2nnc(C(F)(F)F)o2)cc1F)c1ccc(F)c(Cl)c1` [Compound 11602, N-(3-chloro-4-fluorophenyl)-N-(2-fluoro-4-(5-(trifluoromethyl)-1,3,4-oxadiazol-2-yl)benzyl)tetrahydro-2H-thiopyran-4-carboxamide 1,1-dioxide], on human recombinant HDAC6, the “HDAC6 selectivity (fold)” value is listed as 263 fold and the IC50 was determined as 380 nM.
Turning to `O=C(C1CCS(=O)(=O)CC1)N(Cc1ccc(-c2nnc(C(F)F)o2)cc1F)c1ccc(F)c(Cl)c1` [Compound 11603, N-(3-chloro-4-fluorophenyl)-N-(4-(5-(difluoromethyl)-1,3,4-oxadiazol-2-yl)-2-fluorobenzyl)tetrahydro-2H-thiopyran-4-carboxamide 1,1-dioxide], at human recombinant HDAC6, the “HDAC6 selectivity (fold)” value is listed as 685 fold and the IC50 was determined as 146 nM.
As to `O=C(CN1CCS(=O)(=O)CC1)N(Cc1ccc(-c2nnc(C(F)F)o2)cc1F)c1ccc(F)c(Cl)c1` [Compound 11610, N-(3-chloro-4-fluorophenyl)-N-(4-(5-(difluoromethyl)-1,3,4-oxadiazol-2-yl)-2-fluorobenzyl)-2-(1,1-dioxidothiomorpholino)acetamide], at human recombinant HDAC6, the “HDAC6 selectivity (fold)” value was 690 fold and the IC50 was determined as 145 nM.
Take `CC(=O)N1CCN(CC(=O)N(Cc2ccc(-c3nnc(C(F)F)o3)cc2F)c2ccc(F)c(Cl)c2)CC1` [Compound 11611, 2-(4-acetylpiperazin-1-yl)-N-(3-chloro-4-fluorophenyl)-N-(4-(5-(difluoromethyl)-1,3,4-oxadiazol-2-yl)-2-fluorobenzyl)acetamide]: on human recombinant HDAC6, the “HDAC6 selectivity (fold)” value is reported as 625 fold and the IC50 was determined as 160 nM.
For `O=C(C1CC1)N1CCN(CC(=O)N(Cc2ccc(-c3nnc(C(F)F)o3)cc2F)c2ccc(F)c(Cl)c2)CC1` [Compound 11612, N-(3-chloro-4-fluorophenyl)-2-(4-(cyclopropanecarbonyl)piperazin-1-yl)-N-(4-(5-(difluoromethyl)-1,3,4-oxadiazol-2-yl)-2-fluorobenzyl)acetamide], at human recombinant HDAC6, the “HDAC6 selectivity (fold)” value worked out at 535 fold and the IC50 was 187 nM.
`CS(=O)(=O)N1CCN(CC(=O)N(Cc2ccc(-c3nnc(C(F)F)o3)cc2F)c2ccc(F)c(Cl)c2)CC1` [Compound 11613, N-(3-chloro-4-fluorophenyl)-N-(4-(5-(difluoromethyl)-1,3,4-oxadiazol-2-yl)-2-fluorobenzyl)-2-(4-(methylsulfonyl)piperazin-1-yl)acetamide]: at human recombinant HDAC6, the “HDAC6 selectivity (fold)” value turned out to be 676 fold and the IC50 was determined as 148 nM.
As to `O=C(CN1CCN(C2COC2)CC1)N(Cc1ccc(-c2nnc(C(F)F)o2)cc1F)c1ccc(F)c(Cl)c1` [Compound 11614, N-(3-chloro-4-fluorophenyl)-N-(4-(5-(difluoromethyl)-1,3,4-oxadiazol-2-yl)-2-fluorobenzyl)-2-(4-(oxetan-3-yl)piperazin-1-yl)acetamide], at human recombinant HDAC6, the “HDAC6 selectivity (fold)” value stood at 1190 fold and the IC50 turned out to be 84 nM.
Consider `O=C(C1CCN(C2COC2)CC1)N(Cc1ccc(-c2nnc(C(F)(F)F)o2)cc1F)c1ccccc1` [Compound 11621, N-(2-fluoro-4-(5-(trifluoromethyl)-1,3,4-oxadiazol-2-yl)benzyl)-1-(oxetan-3-yl)-N-phenylpiperidine-4-carboxamide], for which, at human recombinant HDAC6, the “HDAC6 selectivity (fold)” value amounted to 358 fold and the IC50 is 279 nM.
With `O=C(C1CCN(C2COC2)CC1)N(Cc1ccc(-c2nnc(C(F)F)o2)cc1F)c1ccccc1` [Compound 11622, N-(4-(5-(difluoromethyl)-1,3,4-oxadiazol-2-yl)-2-fluorobenzyl)-1-(oxetan-3-yl)-N-phenylpiperidine-4-carboxamide], at human recombinant HDAC6, the “HDAC6 selectivity (fold)” value is given as 714 fold and the IC50 was 140 nM.

The values are drawn from US10584117B2, “1,3,4-oxadiazole amide derivative compound as histone deacetylase 6 inhibitor, and pharmaceutical composition containing same” (Chong Kun Dang Pharmaceutical Corp., priority 2015, dated 2020).
